Results: patent publication US9630977B2, “Cephalosporin derivatives and pharmaceutical compositions thereof” (Legochem Biosciences, Inc., priority 2011, dated 2017)
In brackets after ≈: the same amount, converted by molar mass.

Each compound was assayed on E. cloacae β19 (assay: In vitro antibacterial activity test (broth microdilution)). Conditions: Enterobacter cloacae.
Format: cell-based
In short: (§1)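 Compounds were dissolved in DMSO at 10,240 ug/mL stock, diluted two-fold in DMSO and then twenty-fold in sterile water. Final test concentrations spanned 0.0626 to 128 ug/mL with 2.5% (V/V) DMSO, and MIC90 was read by CLSI broth microdilution.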
`C[C@H](O/N=C(\C(=O)N[C@@H]1C(=O)N2C(C(=O)[O-])=C(/C=C/C[n+]3cnc(N)c(NCCN)c3)CSC12)c1csc(N)n1)C(=O)O` (stereo partly shown) [Compound 52] was tested, and the MIC90 was 8 µg/mL (≈ 12.6 µM).

The compounds below were run on A. calcoaceticus ATCC15473 in the same assay as above. Conditions: Acinetobacter calcoaceticus, ATCC15473, A. calcoaceticus ATCC15473.
Format: cell-based
In short: as §1
`C[C@H](O/N=C(\C(=O)N[C@@H]1C(=O)N2C(C(=O)[O-])=C(/C=C/C[n+]3cnc(N)c(NCCN)c3)CSC12)c1csc(N)n1)C(=O)O` (stereo partly shown) [Compound 52] showed an MIC90 of 1 µg/mL (≈ 1.58 µM).

The compounds below were run on A. baumannii 49 in the same assay as above. Conditions: Acinetobacter baumannii, 49, A. baumannii 49.
Format: cell-based
In short: as §1
In the case of `C[C@H](O/N=C(\C(=O)N[C@@H]1C(=O)N2C(C(=O)[O-])=C(/C=C/C[n+]3cnc(N)c(NCCN)c3)CSC12)c1csc(N)n1)C(=O)O` (stereo partly shown) [Compound 52], the MIC90 is reported as over 128 µg/mL.

Each compound was assayed on K. pneumoniae β10 in the same assay as above. Conditions: Klebsiella pneumoniae.
Format: cell-based
In short: as §1
Compound `C[C@H](O/N=C(\C(=O)N[C@@H]1C(=O)N2C(C(=O)[O-])=C(/C=C/C[n+]3cnc(N)c(NCCN)c3)CSC12)c1csc(N)n1)C(=O)O` (stereo partly shown) [Compound 52] has an MIC90 of 1 µg/mL (≈ 1.58 µM).

Each compound was assayed on A. baumannii 46 in the same assay as above. Conditions: Acinetobacter baumannii, 46, A. baumannii 46.
Format: cell-based
In short: as §1
`C[C@H](O/N=C(\C(=O)N[C@@H]1C(=O)N2C(C(=O)[O-])=C(/C=C/C[n+]3cnc(N)c(NCCN)c3)CSC12)c1csc(N)n1)C(=O)O` (stereo partly shown) [Compound 52] was tested, and the MIC90 was 1 µg/mL (≈ 1.58 µM).

What follows are compounds tested on M. catarrhalis 2524 in the same assay as above. Conditions: Moraxella catarrhalis, 2524.
Format: cell-based
In short: as §1
`C[C@H](O/N=C(\C(=O)N[C@@H]1C(=O)N2C(C(=O)[O-])=C(/C=C/C[n+]3cnc(N)c(NCCN)c3)CSC12)c1csc(N)n1)C(=O)O` (stereo partly shown) [Compound 52] showed an MIC90 of under 0.0625 µg/mL.

What follows are compounds tested on K. pneumoniae β14 in the same assay as above. Conditions: Klebsiella pneumoniae.
Format: cell-based
In short: as §1
In the case of `C[C@H](O/N=C(\C(=O)N[C@@H]1C(=O)N2C(C(=O)[O-])=C(/C=C/C[n+]3cnc(N)c(NCCN)c3)CSC12)c1csc(N)n1)C(=O)O` (stereo partly shown) [Compound 52], the MIC90 is reported as 8 µg/mL (≈ 12.6 µM).

What follows are compounds tested on P. aeruginosa 1912E in the same assay as above. Conditions: Pseudomonas aeruginosa, 1912E.
Format: cell-based
In short: as §1
`C[C@H](O/N=C(\C(=O)N[C@@H]1C(=O)N2C(C(=O)[O-])=C(/C=C/C[n+]3cnc(N)c(NCCN)c3)CSC12)c1csc(N)n1)C(=O)O` (stereo partly shown) [Compound 52] was tested, and the MIC90 was 0.5 µg/mL (≈ 0.79 µM).

Each compound was assayed on K. pneumoniae β9 in the same assay as above. Conditions: Klebsiella pneumoniae.
Format: cell-based
In short: as §1
Compound `C[C@H](O/N=C(\C(=O)N[C@@H]1C(=O)N2C(C(=O)[O-])=C(/C=C/C[n+]3cnc(N)c(NCCN)c3)CSC12)c1csc(N)n1)C(=O)O` (stereo partly shown) [Compound 52] has an MIC90 of 4 µg/mL (≈ 6.32 µM).

The compounds below were run on K. pneumoniae β11 in the same assay as above. Conditions: Klebsiella pneumoniae.
Format: cell-based
In short: as §1
`C[C@H](O/N=C(\C(=O)N[C@@H]1C(=O)N2C(C(=O)[O-])=C(/C=C/C[n+]3cnc(N)c(NCCN)c3)CSC12)c1csc(N)n1)C(=O)O` (stereo partly shown) [Compound 52] gave an MIC90 of 128 µg/mL (≈ 202 µM).

These compounds were tested on K. pneumoniae β13 in the same assay as above. Conditions: Klebsiella pneumoniae.
Format: cell-based
In short: as §1
`C[C@H](O/N=C(\C(=O)N[C@@H]1C(=O)N2C(C(=O)[O-])=C(/C=C/C[n+]3cnc(N)c(NCCN)c3)CSC12)c1csc(N)n1)C(=O)O` (stereo partly shown) [Compound 52] gave an MIC90 of 4 µg/mL (≈ 6.32 µM).

The compounds below were run on E. coli β4 in the same assay as above. Conditions: Escherichia coli.
Format: cell-based
In short: as §1
With `C[C@H](O/N=C(\C(=O)N[C@@H]1C(=O)N2C(C(=O)[O-])=C(/C=C/C[n+]3cnc(N)c(NCCN)c3)CSC12)c1csc(N)n1)C(=O)O` (stereo partly shown) [Compound 52] the MIC90 was under 0.0625 µg/mL.

What follows are compounds tested on P. aeruginosa 6065Y in the same assay as above. Conditions: Pseudomonas aeruginosa, 6065Y.
Format: cell-based
In short: as §1
For `C[C@H](O/N=C(\C(=O)N[C@@H]1C(=O)N2C(C(=O)[O-])=C(/C=C/C[n+]3cnc(N)c(NCCN)c3)CSC12)c1csc(N)n1)C(=O)O` (stereo partly shown) [Compound 52], the MIC90 was 4 µg/mL (≈ 6.32 µM).

What follows are compounds tested on P. aeruginosa 37 in the same assay as above. Conditions: Pseudomonas aeruginosa, 37, P. aeruginosa 37.
Format: cell-based
In short: as §1
`C[C@H](O/N=C(\C(=O)N[C@@H]1C(=O)N2C(C(=O)[O-])=C(/C=C/C[n+]3cnc(N)c(NCCN)c3)CSC12)c1csc(N)n1)C(=O)O` (stereo partly shown) [Compound 52] was tested, and the MIC90 was 16 µg/mL (≈ 25.3 µM).

These compounds were tested on P. aeruginosa 43 in the same assay as above. Conditions: Pseudomonas aeruginosa, 43.
Format: cell-based
In short: as §1
`C[C@H](O/N=C(\C(=O)N[C@@H]1C(=O)N2C(C(=O)[O-])=C(/C=C/C[n+]3cnc(N)c(NCCN)c3)CSC12)c1csc(N)n1)C(=O)O` (stereo partly shown) [Compound 52] showed an MIC90 of 32 µg/mL (≈ 50.6 µM).

What follows are compounds tested on A. baumannii 52 in the same assay as above. Conditions: Acinetobacter baumannii, 52.
Format: cell-based
In short: as §1
`C[C@H](O/N=C(\C(=O)N[C@@H]1C(=O)N2C(C(=O)[O-])=C(/C=C/C[n+]3cnc(N)c(NCCN)c3)CSC12)c1csc(N)n1)C(=O)O` (stereo partly shown) [Compound 52] showed an MIC90 of over 128 µg/mL.

What follows are compounds tested on E. coli AG100 in the same assay as above. Conditions: Escherichia coli, AG100.
Format: cell-based
In short: as §1
`C[C@H](O/N=C(\C(=O)N[C@@H]1C(=O)N2C(C(=O)[O-])=C(/C=C/C[n+]3cnc(N)c(NCCN)c3)CSC12)c1csc(N)n1)C(=O)O` (stereo partly shown) [Compound 52] was tested, and the MIC90 was under 0.0625 µg/mL.

The compounds below were run on K. pneumoniae 2011E in the same assay as above. Conditions: Klebsiella pneumoniae, 2011E.
Format: cell-based
In short: as §1
`C[C@H](O/N=C(\C(=O)N[C@@H]1C(=O)N2C(C(=O)[O-])=C(/C=C/C[n+]3cnc(N)c(NCCN)c3)CSC12)c1csc(N)n1)C(=O)O` (stereo partly shown) [Compound 52] gave an MIC90 of under 0.0625 µg/mL.

What follows are compounds tested on P. aeruginosa 40 in the same assay as above. Conditions: Pseudomonas aeruginosa, 40.
Format: cell-based
In short: as §1
In the case of `C[C@H](O/N=C(\C(=O)N[C@@H]1C(=O)N2C(C(=O)[O-])=C(/C=C/C[n+]3cnc(N)c(NCCN)c3)CSC12)c1csc(N)n1)C(=O)O` (stereo partly shown) [Compound 52], the MIC90 is reported as 2 µg/mL (≈ 3.16 µM).
